Source: US20110144012A1, “SHORTENED GLUCAGON-LIKE PEPTIDE 1(SGLP-1) PREPARATION METHOD AND APPLICATION” (Dalian D.N. Bio-Engineering Co., Ltd., priority 2005, published 2011)

What was measured:
[1] = system: Healthy C57/BL mice; experiment: C peptide secretion promotion effect of sGLP-1 (serum C peptide, radio immunity kit); type: in vivo; details: fasting healthy C57/BL mice, 10 microgram injected
Description: Experiment Material and Method: • Healthy C57/BL mice (Provided by Shanghai Laboratory Animal Center, Chinese Academy of Sciences) • 0.9% NaCl solution, pure sGLP-1 product (Prepared in Example 1), pure GLP-1 product. • Radio immunity C-peptide determination reagent kit (Made by Shanghai Institute of Biological Products (SIBP), Ministry of Health P.R.China.) • Healthy C57/BL mice are divided into three groups. Use graduated capillary (wash the inner walls of the capillaries with 1 mg/mL heparin and dry the capillaries) to sample 50 microliters of blood from their orbital sinuses first, and inject the three groups of fasting mice with 10 microgram of sGLP-1, 10 microgram of GLP-1 and 200 microliters of normal saline, and regard this time as zero. Repeat the above operation at 5, 10, 20 and 30 minutes after that respectively. Place all the blood samples in a centrifuge tube with 50 microliters of normal saline in it, mix the blood samples and saline well, centrifuge the mixture at 3000 rpm to remove erythrocyte, and determinate C peptide level of blood serum according to the method in this radio immunity reagent kit to check C peptide secretion promotion effect of sGLP-1. • The experiment result is shown in Table 3.

[2] = system: NOD mice; experiment: Blood glucose-lowering effect on NOD mice (glucose injection); type: in vivo; details: for blood glucose level, 0 minutes after administration / blood glucose level, 5 minutes after administration / blood glucose level, 10 minutes after administration / blood glucose level, 20 minutes after administration: NOD mice fasted overnight, 200 microliters 40% glucose + 10 microgram peptide; for blood glucose-lowering effect (in words): NOD mice, glucose injection + 10 microgram peptide
Description: Experimental Material and Method: • NOD mice (Provided by Shanghai Laboratory Animal Center, Chinese Academy of Sciences) fasting overnight. • 40% glucose, 0.9% NaCl solution, pure sGLP-1 product (Prepared in Example 1), pure GLP-1 product, reagent kit for blood glucose level determination (Made by Shanghai Institute of Biological Products (SIBP), Ministry of Health P.R.China.) NOD mice fast overnight, and are divided into three groups. Fasting Group 1 is injected with 200 microliters of 40% glucose and 10 microgram of sGLP-1; Fasting Group 2 is injected with 200 microliters of 40% glucose and 10 microgram of GLP-1; Group 3, a control group, is injected with only glucose. Immediately use graduated capillaries (treated with heparin before injection) to sample 20 microliters of blood from their orbital sinuses, add 300 microliters of normal saline to the blood and mix well, centrifuge it at 3000 rpm to remove erythrocyte, and use blood serum for fasting blood glucose level determination. […] The blood serum of the three groups is determined on blood glucose level according to the method in the reagent kit in order to check the blood glucose-lowering effect of each group.

[3] = system: NOD mice; experiment: Insulinotropic hormone secretion effect of sGLP-1 (serum insulin, radio immunity kit); type: in vivo; details: fasting NOD mice, 10 microgram injected
Description: Experimental Material and Method: • NOD mice (Provided by Shanghai Laboratory Animal Center, Chinese Academy of Sciences) • 0.9% NaCl solution, pure sGLP-1 product (prepared in Example 1), pure GLP-1 product, and radio immunity insulin determination reagent kit (Made by Shanghai Institute of Biological Products (SIBP), Ministry of Health P.R.China.) NOD mice are divided into three groups. Use graduated capillary (wash the inner walls of the capillaries with 1 mg/mL heparin and dry the capillaries) to sample 50 microliters of blood from their orbital sinuses first, and inject the three groups of fasting mice with 10 microgram of sGLP-1, 10 microgram of GLP-1 and 200 microliters of normal saline, and regard this time as zero. Repeat the above operation at 5, 10, 20 and 30 minutes after that respectively. Place all the blood samples in a centrifuge tube with 50 microliters of normal saline in it, mix the blood samples and saline well, centrifuge the mixture at 3000 rpm to remove erythrocyte, and determinate insulin level of blood serum according to the method in this radio immunity reagent kit to check insulinotropic hormone secretion effect of sGLP-1. • The experiment result is shown in Table 2.

[4] = system: GK diabetes mellitus rats; experiment: Blood glucose-lowering effect experiment in GK diabetes mellitus rats (fasting blood glucose level); type: in vivo; details: injected 0.1 mg/time, twice a day for two weeks, fasted overnight
Description: Material and Method • GK diabetes mellitus rats (Provided by Shanghai Laboratory Animal Center, Chinese Academy of Sciences)
sGLP-1 sequence is as follows:
• The above eight polypeptides with different sequence is mixed with 0.9% NaCl solution to prepare 1 mg/ml solution, which is standby. • The rats are grouped at random, and fast overnight. Use graduated capillaries (treated with heparin before injection) to sample 20 microliters of blood from their orbital sinuses, add 300 microliters of normal saline to the blood and mix well, centrifuge it at 3000 rpm to remove erythrocyte, and use blood serum for fasting blood glucose level determination. Inject each group of rats with different polypeptides, and use normal saline as Control N. All the rats are injected at 0.1 mg/time, twice a day for two weeks. They must fast overnight, and be sampled according to the above method for fasting blood glucose level determination. […] No. 1 sequence is full-length GLP-1 sequence, in which the second amino acid is changed from A to G, as Control P; No. 2 to No. 5 are the reconstructed sequences with different shortened length.

[5] = in comparison with GLP-1; U.S. Pat. No. 5,424,286; cited from earlier work
[6] = in comparison with GLP-1; cited from earlier work

Substance | c peptide level, 0 minutes after administration [1] [pmol/mL] | c peptide level, 5 minutes after administration [1] [pmol/mL] | c peptide level, 10 minutes after administration [1] [pmol/mL] | c peptide level, 20 minutes after administration [1] [pmol/mL] | c peptide level, 30 minutes after administration [1] [pmol/mL] | blood glucose level, 0 minutes after administration [2] [mmol/L] | blood glucose level, 5 minutes after administration [2] [mmol/L] | blood glucose level, 10 minutes after administration [2] [mmol/L] | blood glucose level, 20 minutes after administration [2] [mmol/L] | blood glucose-lowering effect (in words) [2] | insulin level, 0 minutes after administration [3] | insulin level, 5 minutes after administration [3] | insulin level, 10 minutes after administration [3] | insulin level, 20 minutes after administration [3] | insulin level, 30 minutes after administration [3] | blood glucose-lowering effect (fasting blood glucose level) [4] | further results
His-Ala-Glu-Gly-Thr-Phe-Thr-Ser-Asp-Val-Ser-Ser-Tyr-Leu-Glu-Gly-Gln-Ala-Ala-Lys-Glu-Phe-Ile-Ala-Trp-Leu-Val-Lys-Gly-Arg [GLP-1] | 0.07 | 0.08 | 0.15 | 0.11 | 0.09 | 4.11 | 5.12 | 4.87 | 4.03 | have blood glucose-lowering effect | 3.11 10^−6 international unit | 9.76 10^−6 international unit | 10.63 10^−6 international unit | 11.23 10^−6 international unit | 6.27 10^−6 international unit | – | –
HGEGTFTSDVSSYLEGQAAKEFIAWL [No. 2, shortened glucagon-like peptide 1 of 26 amino acids, X1 is Gly] | 0.07 | 0.08 | 0.20 | 0.16 | 0.15 | 4.08 | 4.34 | 4.28 | 3.98 | have blood glucose-lowering effect | 2.88 10^−6 international unit | 10.56 10^−6 international unit | 19.88 10^−6 international unit | 24.67 10^−6 international unit | 16.45 10^−6 international unit | blood glucose-lowering effect prominently exceeding No. 1 | c peptide secretion promotion (in words) [1]: can prominently promote c peptide secretion; c peptide secretion promotion capacity compared with GLP-1 (in words) [1]: c peptide secretion promotion capacity exceeding GLP-1; insulin secretion promotion (in words) [3]: can prominently promote insulin secretion; insulin generation stimulation capacity compared with GLP-1 (in words) ([3]; short-time versus medium and long-term): the same short-time insulin generation stimulation capacity as GLP-1 and the medium and long-term insulin generation stimulation capacity stronger than GLP-1; blood glucose-lowering effect (fasting blood glucose level) ([4]; listed as sGLP-1): better blood glucose-lowering effect than GLP-1 and its reconstructed sequence
Exendin 4 | – | – | – | – | – | – | – | – | – | – | – | – | – | – | – | – | concentration required for insulin secretion action (in words) [5]: lower; half time in human body (in words) [6]: longer half time in human body
HSEGTFTSDVSSYLEGQAAKEFIAWL [No. 3, shortened glucagon-like peptide 1 of 26 amino acids, X1 is Ser] | – | – | – | – | – | – | – | – | – | – | – | – | – | – | – | blood glucose-lowering effect prominently exceeding No. 1 | –
